Columns and labels:
AChE (from electric eel) = target: T1, AChE (from electric eel) (Electrophorus electricus, UniProt O42275); test: biochemical; conditions: eeAChE; for inhibition at 100 µM: compound at 100 μM, read-out: AChE inhibition rate (%) in 100 μM; for IC50: mean ± spread
T1 construct: purchased Sigma-Aldrich

[1] = target: butyrylcholinesterase (BuChE, from equine serum) (Equus caballus, UniProt P81908); test: biochemical; conditions: eqBuChE; mean ± spread
butyrylcholinesterase (BuChE, from equine serum), sequence (P81908 whole entry): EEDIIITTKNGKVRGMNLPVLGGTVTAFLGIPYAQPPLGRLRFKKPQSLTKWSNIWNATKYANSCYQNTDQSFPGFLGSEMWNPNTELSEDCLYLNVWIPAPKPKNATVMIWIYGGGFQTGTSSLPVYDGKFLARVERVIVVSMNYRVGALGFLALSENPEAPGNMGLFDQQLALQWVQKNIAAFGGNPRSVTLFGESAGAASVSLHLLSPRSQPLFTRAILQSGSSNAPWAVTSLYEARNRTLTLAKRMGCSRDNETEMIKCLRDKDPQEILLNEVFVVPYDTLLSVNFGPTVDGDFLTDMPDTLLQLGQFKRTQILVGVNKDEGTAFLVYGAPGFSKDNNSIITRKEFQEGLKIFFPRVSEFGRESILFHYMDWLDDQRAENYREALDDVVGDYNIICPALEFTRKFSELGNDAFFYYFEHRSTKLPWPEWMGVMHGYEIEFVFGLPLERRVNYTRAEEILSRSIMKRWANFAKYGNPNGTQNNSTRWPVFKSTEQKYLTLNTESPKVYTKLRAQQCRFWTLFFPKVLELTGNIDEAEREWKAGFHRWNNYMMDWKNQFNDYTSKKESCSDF

T1 sequence (O42275 24-633): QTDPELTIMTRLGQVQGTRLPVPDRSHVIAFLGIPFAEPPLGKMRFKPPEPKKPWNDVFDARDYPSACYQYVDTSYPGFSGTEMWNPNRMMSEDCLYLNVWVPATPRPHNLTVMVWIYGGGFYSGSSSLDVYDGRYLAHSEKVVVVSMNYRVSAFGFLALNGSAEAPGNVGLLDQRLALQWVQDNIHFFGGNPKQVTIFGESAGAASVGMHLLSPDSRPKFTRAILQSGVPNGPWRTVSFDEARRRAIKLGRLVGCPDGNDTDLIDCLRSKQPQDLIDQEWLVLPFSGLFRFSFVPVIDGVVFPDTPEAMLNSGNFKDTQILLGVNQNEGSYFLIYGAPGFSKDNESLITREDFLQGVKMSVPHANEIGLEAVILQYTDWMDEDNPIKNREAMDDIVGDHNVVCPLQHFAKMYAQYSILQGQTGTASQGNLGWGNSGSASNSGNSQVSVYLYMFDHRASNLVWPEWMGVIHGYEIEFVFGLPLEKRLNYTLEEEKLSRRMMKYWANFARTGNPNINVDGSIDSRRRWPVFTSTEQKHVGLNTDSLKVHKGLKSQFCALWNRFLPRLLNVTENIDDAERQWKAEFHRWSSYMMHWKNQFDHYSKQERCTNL

Compound	inhibition at 100 µM (AChE (from electric eel))	IC50 [1]	IC50 (AChE (from electric eel))
COc1ccc2[nH]c3c4c(c(C=O)cc3c2c1)OC(C)(C)C=C4 [Clau F, Claulansine F, reference compound]	28.2 ± 2.11%	64.3 ± 7.52 µM	
CC1(C)C=Cc2c(c(/C=C/C(=O)NC3CCN(Cc4ccccc4)CC3)cc3c2[nH]c2ccc(C(C)(C)C)cc23)O1 [Compound 6aa, (E)-N-(1-Benzylpiperidin-4-yl)-3-(8-(tert-butyl)-3,3-dimethyl-3,11-dihydropyrano[3,2-a]carbazol-5-yl)acrylamide]		22.9 ± 1.14 µM	51.9 ± 2.24 µM
CC1(C)C=Cc2c(c(/C=C/C(=O)NC3CCN(Cc4ccccc4F)CC3)cc3c2[nH]c2ccc(C(C)(C)C)cc23)O1 [Compound 6ab, (E)-3-(8-(tert-Butyl)-3,3-dimethyl-3,11-dihydropyrano[3,2-a]carbazol-5-yl)-N-(1-(2-fluorobenzyl)piperidin-4-yl)acrylamide]	36.16 ± 0.31%	35.9 ± 5.13 µM	
Cc1ccccc1CN1CCC(NC(=O)/C=C/c2cc3c([nH]c4ccc(C(C)(C)C)cc43)c3c2OC(C)(C)C=C3)CC1 [Compound 6ac, (E)-3-(8-(tert-Butyl)-3,3-dimethyl-3,11-dihydropyrano[3,2-a]carbazol-5-yl)-N-(1-(2-methylbenzyl)piperidin-4-yl)acrylamide]	50.9 ± 2.76%	34.3 ± 0.69 µM	
CC1(C)C=Cc2c(c(/C=C/C(=O)NC3CCN(Cc4ccccc4Cl)CC3)cc3c2[nH]c2ccc(C(C)(C)C)cc23)O1 [Compound 6ad, (E)-3-(8-(tert-Butyl)-3,3-dimethyl-3,11-dihydropyrano[3,2-a]carbazol-5-yl)-N-(1-(2-chlorobenzyl)piperidin-4-yl)acrylamide]	42.5 ± 6.12%	38.8 ± 2.48 µM	
COc1ccc2[nH]c3c4c(c(/C=C/C(=O)NC5CCN(Cc6ccccc6)CC5)cc3c2c1)OC(C)(C)C=C4 [Compound 6ae, (E)-N-(1-Benzylpiperidin-4-yl)-3-(8-methoxy-3,3-dimethyl-3,11-dihydropyrano[3,2-a]carbazol-5-yl)acrylamide]	20.4 ± 7.35%	69.1 ± 8.51 µM	
COc1ccc2[nH]c3c4c(c(/C=C/C(=O)NC5CCN(Cc6ccccc6F)CC5)cc3c2c1)OC(C)(C)C=C4 [Compound 6af, (E)-N-(1-(2-Fluorobenzyl)piperidin-4-yl)-3-(8-methoxy-3,3-dimethyl-3,11-dihydropyrano[3,2-a]carbazol-5-yl)acrylamide]	34.2 ± 10.7%	24.5 ± 1.94 µM	
COc1ccc2[nH]c3c4c(c(/C=C/C(=O)NC5CCN(Cc6ccccc6C)CC5)cc3c2c1)OC(C)(C)C=C4 [Compound 6ag, (E)-3-(8-Methoxy-3,3-dimethyl-3,11-dihydropyrano[3,2-a]carbazol-5-yl)-N-(1-(2-methylbenzyl)piperidin-4-yl)acrylamide]	36.8 ± 1.25%	26.4 ± 4.51 µM	
COc1ccc2[nH]c3c4c(c(/C=C/C(=O)NC5CCN(Cc6ccccc6Cl)CC5)cc3c2c1)OC(C)(C)C=C4 [Compound 6ah, (E)-N-(1-(2-Chlorobenzyl)piperidin-4-yl)-3-(8-methoxy-3,3-dimethyl-3,11-dihydropyrano[3,2-a]carbazol-5-yl)acrylamide]	40 ± 1.4%	18 ± 2.27 µM	
CC1(C)C=Cc2c(c(/C=C/C(=O)NCC3CCN(Cc4ccccc4)CC3)cc3c2[nH]c2ccc(C(C)(C)C)cc23)O1 [Compound 6ba, (E)-N-((1-Benzylpiperidin-4-yl)methyl)-3-(8-(tert-butyl)-3,3-dimethyl-3,11-dihydropyrano[3,2-a]carbazol-5-yl)acrylamide]		12.3 ± 0.66 µM	4.62 ± 0.28 µM
Cc1ccccc1CN1CCC(CNC(=O)/C=C/c2cc3c([nH]c4ccc(C(C)(C)C)cc43)c3c2OC(C)(C)C=C3)CC1 [Compound 6bc, (E)-3-(8-(tert-Butyl)-3,3-dimethyl-3,11-dihydropyrano[3,2-a]carbazol-5-yl)-N-((1-(2-methylbenzyl)piperidin-4-yl)methyl)acrylamide]		19 ± 0.94 µM	4.26 ± 0.22 µM
COc1ccc2[nH]c3c4c(c(/C=C/C(=O)NCC5CCN(Cc6ccccc6)CC5)cc3c2c1)OC(C)(C)C=C4 [Compound 6bg, (E)-N-((1-Benzylpiperidin-4-yl)methyl)-3-(8-methoxy-3,3-dimethyl-3,11-dihydropyrano[3,2-a]carbazol-5-yl)acrylamide]		74.9 ± 3.21 µM	27.7 ± 5.15 µM
COc1ccc2[nH]c3c4c(c(/C=C/C(=O)NCC5CCN(Cc6ccccc6F)CC5)cc3c2c1)OC(C)(C)C=C4 [Compound 6bh, (E)-N-((1-(2-Fluorobenzyl)piperidin-4-yl)methyl)-3-(8-methoxy-3,3-dimethyl-3,11-dihydropyrano[3,2-a]carbazol-5-yl)acrylamide]		31.5 ± 3.88 µM	23.6 ± 8.31 µM
COc1ccc2[nH]c3c4c(c(/C=C/C(=O)NCC5CCN(Cc6ccccc6C)CC5)cc3c2c1)OC(C)(C)C=C4 [Compound 6bi, (E)-3-(8-Methoxy-3,3-dimethyl-3,11-dihydropyrano[3,2-a]carbazol-5-yl)-N-((1-(2-methylbenzyl)piperidin-4-yl)methyl)acrylamide]		32.8 ± 0.5 µM	58.4 ± 1.79 µM
COc1ccc2[nH]c3c4c(c(/C=C/C(=O)NCC5CCN(Cc6ccccc6Cl)CC5)cc3c2c1)OC(C)(C)C=C4 [Compound 6bj, (E)-N-((1-(2-Chlorobenzyl)piperidin-4-yl)methyl)-3-(8-methoxy-3,3-dimethyl-3,11-dihydropyrano[3,2-a]carbazol-5-yl)acrylamide]		37.6 ± 0.56 µM	91.1 ± 4.41 µM
CC1(C)C=Cc2c(c(/C=C/C(=O)NCCC3CCN(Cc4ccccc4)CC3)cc3c2[nH]c2ccc(C(C)(C)C)cc23)O1 [Compound 6ca, (E)-N-(2-(1-Benzylpiperidin-4-yl)ethyl)-3-(8-(tert-butyl)-3,3-dimethyl-3,11-dihydropyrano[3,2-a]carbazol-5-yl)acrylamide]		23.4 ± 0.95 µM	9 ± 0.86 µM
CC1(C)C=Cc2c(c(/C=C/C(=O)NCCC3CCN(Cc4ccccc4F)CC3)cc3c2[nH]c2ccc(C(C)(C)C)cc23)O1 [Compound 6cb, (E)-3-(8-(tert-Butyl)-3,3-dimethyl-3,11-dihydropyrano[3,2-a]carbazol-5-yl)-N-(2-(1-(2-fluorobenzyl)piperidin-4-yl)ethyl)acrylamide]		19.1 ± 2.04 µM	10.7 ± 0.2 µM
Cc1ccccc1CN1CCC(CCNC(=O)/C=C/c2cc3c([nH]c4ccc(C(C)(C)C)cc43)c3c2OC(C)(C)C=C3)CC1 [Compound 6cc, (E)-3-(8-(tert-Butyl)-3,3-dimethyl-3,11-dihydropyrano[3,2-a]carbazol-5-yl)-N-(2-(1-(2-methylbenzyl)piperidin-4-yl)ethyl)acrylamide]		33.8 ± 0.51 µM	14.3 ± 0.36 µM
CC1(C)C=Cc2c(c(/C=C/C(=O)NCCC3CCN(Cc4ccccc4Cl)CC3)cc3c2[nH]c2ccc(C(C)(C)C)cc23)O1 [Compound 6cd, (E)-3-(8-(tert-Butyl)-3,3-dimethyl-3,11-dihydropyrano[3,2-a]carbazol-5-yl)-N-(2-(1-(2-chlorobenzyl)piperidin-4-yl)ethyl)acrylamide]		17.3 ± 4.82 µM	17 ± 1.51 µM
COc1ccc2[nH]c3c4c(c(/C=C/C(=O)NCCC5CCN(Cc6ccccc6)CC5)cc3c2c1)OC(C)(C)C=C4 [Compound 6ce, (E)-N-(2-(1-Benzylpiperidin-4-yl)ethyl)-3-(8-methoxy-3,3-dimethyl-3,11-dihydropyrano[3,2-a]carbazol-5-yl)acrylamide]		26.4 ± 1.4 µM	41.7 ± 1.22 µM
COc1ccc2[nH]c3c4c(c(/C=C/C(=O)NCCC5CCN(Cc6ccccc6F)CC5)cc3c2c1)OC(C)(C)C=C4 [Compound 6cf, (E)-N-(2-(1-(2-Fluorobenzyl)piperidin-4-yl)ethyl)-3-(8-methoxy-3,3-dimethyl-3,11-dihydropyrano[3,2-a]carbazol-5-yl)acrylamide]		18 ± 3.35 µM	54.8 ± 7.96 µM
COc1ccc2[nH]c3c4c(c(/C=C/C(=O)NCCC5CCN(Cc6ccccc6C)CC5)cc3c2c1)OC(C)(C)C=C4 [Compound 6cg, (E)-3-(8-Methoxy-3,3-dimethyl-3,11-dihydropyrano[3,2-a]carbazol-5-yl)-N-(2-(1-(2-methylbenzyl)piperidin-4-yl)ethyl)acrylamide]		26.7 ± 1.76 µM	73 ± 1.93 µM
COc1ccc2[nH]c3c4c(c(/C=C/C(=O)NCCC5CCN(Cc6ccccc6Cl)CC5)cc3c2c1)OC(C)(C)C=C4 [Compound 6ch, (E)-N-(2-(1-(2-Chlorobenzyl)piperidin-4-yl)ethyl)-3-(8-methoxy-3,3-dimethyl-3,11-dihydropyrano[3,2-a]carbazol-5-yl)acrylamide]		24.2 ± 4.78 µM	24.6 ± 2.1 µM
